Measurements: US6737383B1, “Herbicidal oxadiazolidines” (priority 1999, dated 2004)

How the values were obtained:
[1] = tested on: wild oat; assay: Test B pre/postemergence wild oat; assay type: in vivo, Avena fatua
Procedure, shortened: (§1)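 Test chemicals in a non-phytotoxic solvent mixture with surfactant were sprayed preemergence onto planted seeds and postemergence onto plants 2 to 18 cm tall (1- to 4-leaf stage). After twelve to sixteen days in a greenhouse, injury was visually rated against untreated controls from 0 (no effect) to 10 (complete control).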

[2] = tested on: giant foxtail; assay: Test B pre/postemergence giant foxtail; assay type: in vivo, Setaria faberii
Procedure, shortened: as §1

[3] = tested on: bedstraw; assay: Test B pre/postemergence bedstraw; assay type: in vivo, Galium aparine
Procedure, shortened: as §1

[4] = tested on: smallflower flatsedge; assay: Test B flood test smallflower flatsedge; assay type: in vivo, Cyperus difformis; conditions: Pre-emergence
Procedure, shortened: (§2)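 Flood test on plants grown to the 2-leaf stage; treated plants kept in greenhouse twelve to sixteen days, then visually rated against controls on a 0 (no effect) to 10 (complete control) scale.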

[5] = tested on: velvetleaf; assay: Test B pre/postemergence velvetleaf; assay type: in vivo, Abutilon theophrasti
Procedure, shortened: as §1

[6] = tested on: morningglory; assay: Test B pre/postemergence morningglory; assay type: in vivo, Ipomoea hederacea
Procedure, shortened: as §1

[7] = tested on: corn; assay: Test B pre/postemergence corn; assay type: in vivo, Zea mays
Procedure, shortened: as §1

[8] = tested on: rice; assay: Test B flood test rice; assay type: in vivo, Oryza sativa; conditions: Pre-emergence
Procedure, shortened: as §2

[9] = tested on: surinam grass; assay: Test B pre/postemergence surinam grass; assay type: in vivo, Brachiaria decumbens
Procedure, shortened: as §1

[10] = tested on: wheat; assay: Test B pre/postemergence wheat; assay type: in vivo, Triticum aestivum
Procedure, shortened: as §1

[11] = tested on: blackgrass; assay: Test B pre/postemergence blackgrass; assay type: in vivo, Alopecurus myosuroides
Procedure, shortened: as §1

[12] = tested on: soybean; assay: Test B pre/postemergence soybean; assay type: in vivo, Glycine max
Procedure, shortened: as §1

[13] = tested on: pigweed; assay: Test B pre/postemergence pigweed; assay type: in vivo, Amaranthus retroflexus
Procedure, shortened: as §1

[14] = tested on: purple nutsedge; assay: Test B pre/postemergence purple nutsedge; assay type: in vivo, Cyperus rotundus
Procedure, shortened: as §1

[15] = tested on: crabgrass; assay: Test B pre/postemergence crabgrass; assay type: in vivo, Digitaria sanguinalis
Procedure, shortened: as §1

[16] = tested on: duck salad; assay: Test B flood test duck salad; assay type: in vivo, Heteranthera limosa; conditions: Pre-emergence
Procedure, shortened: as §2

[17] = Preemergence, Rate 62 g/ha, scale of 0 to 10 where 0 is no effect and 10 is complete control
[18] = Preemergence, Rate 250 g/ha, scale of 0 to 10 where 0 is no effect and 10 is complete control
[19] = Preemergence, Rate 500 g/ha, scale of 0 to 10 where 0 is no effect and 10 is complete control
[20] = Rate 62 g/ha, Postemergence, scale 0 to 10 (0 no effect, 10 complete control)
[21] = Rate 125 g/ha, Postemergence, scale of 0 to 10 where 0 is no effect and 10 is complete control
[22] = Rate 250 g/ha, Postemergence, scale of 0 to 10 where 0 is no effect and 10 is complete control
[23] = Rate 500 g/ha, Postemergence, scale 0 to 10, 0 no effect, 10 complete control
[24] = Rate 1000 g/ha, scale 0 to 10 (0 no effect, 10 complete control)
[25] = Rate 125 g/ha, flood test species, scale 0 to 10 where 0 is no effect and 10 is complete control
[26] = Rate 250 g/ha, flood-test species, scale 0 to 10, 0 is no effect, 10 is complete control
[27] = Rate 500 g/ha, flood test species, scale 0 to 10 (0 no effect, 10 complete control)

C=CCn1c(=O)on(C(=O)N(CC)C2CCCCC2)c1=O [Compound 307]
Wild oats plant response rating [1, 17]: 0
Wild oats plant response rating (0 to 10 scale) ([1]; Preemergence, Rate 125 g/ha): 0
Wild oats plant response rating [1, 18]: 0
Wild oats plant response rating [1, 19]: 8
Wild oats plant response rating [1, 20]: 0
Wild oats plant response rating [1, 21]: 0
Plant response rating, Wild oats [1, 22]: 0
Giant foxtail plant response rating [2, 17]: 6
Giant foxtail plant response rating (0 to 10 scale) ([2]; Preemergence, Rate 125 g/ha): 8
Giant foxtail plant response rating [2, 18]: 9
Giant foxtail plant response rating [2, 19]: 9
Giant foxtail plant response rating [2, 20]: 0
Giant foxtail plant response rating [2, 21]: 0
Plant response rating, Giant foxtail [2, 22]: 0
Bedstraw plant response rating [3, 17]: 0
Bedstraw plant response rating (0 to 10 scale) ([3]; Preemergence, Rate 125 g/ha): 0
Bedstraw plant response rating [3, 18]: 0
Bedstraw plant response rating [3, 19]: 0
Bedstraw plant response rating [3, 20]: 0
Bedstraw plant response rating [3, 21]: 0
Plant response rating, Bedstraw [3, 22]: 0
Bedstraw plant response rating [3, 23]: 0
S. Flatsedge plant response rating [4, 24]: 0
S. Flatsedge plant response rating [4, 25]: 0
S. Flatsedge plant response rating [4, 26]: 0
S. Flatsedge plant response rating [4, 27]: 0
Velvetleaf plant response rating [5, 17]: 0
Velvetleaf plant response rating (0 to 10 scale) ([5]; Preemergence, Rate 125 g/ha): 0
Velvetleaf plant response rating [5, 18]: 0
Velvetleaf plant response rating [5, 19]: 2
Velvetleaf plant response rating [5, 20]: 0
Velvetleaf plant response rating [5, 21]: 0
Plant response rating, Velvetleaf [5, 22]: 0
Morningglory plant response rating [6, 17]: 0
Morningglory plant response rating (0 to 10 scale) ([6]; Preemergence, Rate 125 g/ha): 0
Morningglory plant response rating [6, 18]: 0
Morningglory plant response rating [6, 19]: 0
Morningglory plant response rating [6, 20]: 0
Morningglory plant response rating [6, 21]: 2
Plant response rating, Morningglory [6, 22]: 2
Corn plant response rating [7, 17]: 0
Corn plant response rating (0 to 10 scale) ([7]; Preemergence, Rate 125 g/ha): 0
Corn plant response rating [7, 18]: 0
Corn plant response rating [7, 19]: 2
Corn plant response rating [7, 20]: 0
Corn plant response rating [7, 21]: 0
Plant response rating, Corn [7, 22]: 0
Corn plant response rating [7, 23]: 0
Rice plant response rating [8, 24]: 0
Rice plant response rating [8, 25]: 0
Rice plant response rating [8, 26]: 0
Rice plant response rating [8, 27]: 0
B. signalgrass plant response rating [9, 17]: 0
B. signalgrass plant response rating (0 to 10 scale, 0 is no effect, 10 is complete control) ([9]; Preemergence, Rate 125 g/ha): 0
B. signalgrass plant response rating [9, 18]: 0
B. signalgrass plant response rating [9, 19]: 4
B. signalgrass plant response rating [9, 20]: 0
B. signalgrass plant response rating [9, 21]: 0
Plant response rating, B. signalgrass [9, 22]: 0
B. signalgrass plant response rating [9, 23]: 0
Wheat plant response rating [10, 17]: 0
Wheat plant response rating (0 to 10 scale) ([10]; Preemergence, Rate 125 g/ha): 0
Wheat plant response rating [10, 18]: 0
Wheat plant response rating [10, 19]: 0
Wheat plant response rating [10, 20]: 0
Wheat plant response rating [10, 21]: 0
Plant response rating, Wheat [10, 22]: 0
Blackgrass plant response rating [11, 17]: 0
Blackgrass plant response rating (0 to 10 scale) ([11]; Preemergence, Rate 125 g/ha): 0
Blackgrass plant response rating [11, 18]: 2
Blackgrass plant response rating [11, 19]: 4
Blackgrass plant response rating [11, 20]: 0
Blackgrass plant response rating [11, 21]: 0
Plant response rating, Blackgrass [11, 22]: 0
Blackgrass plant response rating [11, 23]: 0
Soybean plant response rating [12, 17]: 0
Soybean plant response rating (0 to 10 scale) ([12]; Preemergence, Rate 125 g/ha): 0
Soybean plant response rating [12, 18]: 0
Soybean plant response rating [12, 19]: 0
Soybean plant response rating [12, 20]: 0
Soybean plant response rating [12, 21]: 2
Plant response rating, Soybean [12, 22]: 2
Redroot pigweed plant response rating [13, 17]: 0
Redroot pigweed plant response rating (0 to 10 scale) ([13]; Preemergence, Rate 125 g/ha): 0
Redroot pigweed plant response rating [13, 18]: 0
Redroot pigweed plant response rating [13, 19]: 4
Redroot pigweed plant response rating [13, 20]: 0
Redroot pigweed plant response rating [13, 21]: 0
Plant response rating, Redroot pigweed [13, 22]: 0
Nutsedge plant response rating [14, 17]: 0
Nutsedge plant response rating (0 to 10 scale) ([14]; Preemergence, Rate 125 g/ha): 0
Nutsedge plant response rating [14, 18]: 0
Nutsedge plant response rating [14, 19]: 0
Nutsedge plant response rating [14, 20]: 0
Nutsedge plant response rating [14, 21]: 0
Plant response rating, Nutsedge [14, 22]: 0
Crabgrass plant response rating [15, 17]: 0
Crabgrass plant response rating (0 to 10 scale) ([15]; Preemergence, Rate 125 g/ha): 0
Crabgrass plant response rating [15, 18]: 0
Crabgrass plant response rating [15, 19]: 2
Crabgrass plant response rating [15, 20]: 0
Crabgrass plant response rating [15, 21]: 0
Plant response rating, Crabgrass [15, 22]: 0
Ducksalad plant response rating [16, 24]: 0
Ducksalad plant response rating [16, 25]: 0
Ducksalad plant response rating [16, 26]: 0
Ducksalad plant response rating [16, 27]: 0
